Legend:
[1] = Selectivity ratio of IC50 for MMP8 to IC50 for MMP13
[2] = Selectivity ratio of IC50 for MMP10 to IC50 for MMP13
Collagenase 3 = Collagenase 3 (Homo sapiens, UniProt P45452)
[3] = Selectivity ratio of IC50 for MMP2 to IC50 for MMP13
Rattus norvegicus = test: Clearance in rat as % of liver blood flow at 1 mg/kg, iv; format: ADME, organism-based; design: dose 1 mg/kg, route intravenous; settings: in vivo
Liver microsomes = test: Metabolic stability in human liver microsomes; format: ADME, Microsome
[4] = Aqueous solubility of the compound at pH 4.5; format: physicochemical; settings: aqueous medium
[5] = Volume of distribution at steady state in rat at 1 mg/kg, iv; format: ADME, organism-based; design: dose 1 mg/kg, route intravenous; settings: in vivo, read-out: Vdss
[6] = Aqueous solubility of the compound at pH 7.4; format: physicochemical; settings: aqueous medium
[7] = Half life in rat at 1 mg/kg, iv; format: ADME, organism-based; design: dose 1 mg/kg, route intravenous; settings: in vivo
[8] = Selectivity ratio of IC50 for MMP3 to IC50 for MMP13

Row | SMILES | Ratio IC50 [1] | Ratio IC50 [2] | IC50 (Collagenase 3) [µM] | Ratio IC50 [3] | Fraction of Liver Blood Flow (Rattus norvegicus) [%] | Stability (Liver microsomes) [%] | solubility [4] [µg/mL] | Vd [5] [L/kg] | solubility [6] [µg/mL] | half-life [7] [min] | Ratio IC50 [8]
1 | CNC(=O)[C@H](NC(=O)c1ccc(-c2cccc(CNC(=O)c3csc(C)n3)c2)o1)C1CCCCC1 | 1800 | 7 | 0.008 | 310 |  |  |  |  |  |  | 
2 | CNC(=O)[C@H](NC(=O)c1ccc(-c2cccc(CNC(=O)c3ccncc3)c2)o1)C1CCCCC1 | > 660 | 4 | 0.031 | 310 |  |  |  |  |  |  | 
3 | CNC(=O)[C@@H](NC(=O)c1ccc(-c2cccc(CNC(=O)c3ccnc(C(F)(F)F)n3)c2)o1)C(C)(C)O |  |  |  |  | 26 | 14 | > 50 | 0.9 | > 50 | 57 | 
4 | CNC(=O)[C@H](NC(=O)c1ccc(-c2cccc(CNC(=O)c3ccn(C)n3)c2)o1)C1CCCCC1 | > 820 | 14 | 0.024 | > 430 |  |  |  |  |  |  | 33
5 | CNC(=O)[C@@H](NC(=O)c1ccc(-c2cccc(CNC(=O)c3ccnc(C(F)(F)F)n3)c2)o1)C(C)C | > 2100 | 50 | 0.009 | 850 |  | 70 |  |  |  |  | 200
6 | CCc1cncc(C(=O)NCc2cccc(-c3ccc(C(=O)N[C@@H](C(=O)NC)C4CCCCC4)o3)c2)c1 | > 170 | 45 | 0.029 | > 170 |  |  |  |  |  |  | > 170
7 | CNC(=O)[C@H](NC(=O)c1ccc(-c2cccc(CNC(=O)c3ccnc(C(F)(F)F)n3)c2)o1)C1CCCCC1 | > 2800 | 370 | 0.007 | > 2800 |  | 66 |  |  |  |  | > 2800
8 | CNC(=O)[C@H](NC(=O)c1ccc(-c2cccc(CNC(=O)c3nccn3C)c2)o1)C1CCCCC1 | > 64 | 9 | 0.31 | > 64 |  |  |  |  |  |  | > 64
9 | CNC(=O)[C@H](NC(=O)c1ccc(-c2cccc(CNC(C)=O)c2)o1)C1CCCCC1 | > 7 | 0.5 | 3.3 | 5 |  |  |  |  |  |  | 3
10 | CNC(=O)[C@H](NC(=O)c1ccc(-c2cccc(CNC(=O)c3cccc(C(F)(F)F)n3)c2)o1)C1CCCCC1 | > 2300 | > 2300 | 0.009 | > 2300 |  | 81 |  |  |  |  | > 2300
11 | CNC(=O)[C@H](NC(=O)c1ccc(-c2cccc(CNC(=O)c3ccnc(Cl)n3)c2)o1)C1CCCCC1 | > 7100 | 27 | 0.003 | 590 |  |  |  |  |  |  | 
12 | CNC(=O)[C@H](NC(=O)c1ccc(-c2cccc(CNC(=O)c3cccc(C)n3)c2)o1)C1CCCCC1 | > 4900 | 87 | 0.004 | > 4900 |  |  |  |  |  |  | 240
13 | CNC(=O)[C@@H](NC(=O)c1ccc(-c2cccc(CNC(=O)c3ccnc(C(F)(F)F)n3)c2)o1)C1CCOCC1 | > 11000 | 100 |  | 640 |  | 24 |  |  |  |  | 250
14 | CNC(=O)[C@H](NC(=O)c1ccc(-c2cccc(CNC(=O)c3ccco3)c2)o1)C1CCCCC1 | > 270 | 6 | 0.075 | > 270 |  |  |  |  |  |  | 15
15 | CNC(=O)[C@H](NC(=O)c1ccc(-c2cccc(CNC(=O)c3cn4ccc(C)cc4n3)c2)o1)C1CCCCC1 | > 37 | 32 | 0.14 | > 37 |  |  |  |  |  |  | > 37
16 | CNC(=O)[C@H](NC(=O)c1ccc(-c2cccc(CNC(=O)c3ccncn3)c2)o1)C1CCCCC1 | > 2000 | 9 | 0.01 | 290 |  |  |  |  |  |  | 
17 | CNC(=O)[C@H](NC(=O)c1ccc(-c2cccc(CNC(=O)c3ccccn3)c2)o1)C1CCCCC1 | > 2400 | 65 | 0.008 | > 2400 |  |  |  |  |  |  | 200
18 | CNC(=O)[C@H](NC(=O)c1ccc(-c2cccc(CNC(=O)c3ccoc3C)c2)o1)C1CCCCC1 | > 61 | 8 | 0.33 | > 61 |  |  |  |  |  |  | 9
19 | CNC(=O)[C@H](NC(=O)c1ccc(-c2cccc(CNC(=O)c3occc3C)c2)o1)C1CCCCC1 | > 110 | 17 | 0.18 | > 110 |  |  |  |  |  |  | > 110
20 | CNC(=O)[C@@H](NC(=O)c1ccc(-c2cccc(CNC(=O)c3cccc(C(F)(F)F)n3)c2)o1)C(C)C | > 3600 | 260 | 0.006 | > 3600 |  | 88 |  |  |  |  | 1000
21 | CNC(=O)[C@@H](NC(=O)c1ccc(-c2cccc(CNC(=O)c3ccnc(C(F)(F)F)n3)c2)o1)C1CC1 | > 560 | 170 | 0.036 | 580 | 47 | 69 |  | 1.2 |  | 42 | 540
22 | CNC(=O)[C@H](NC(=O)c1ccc(-c2cccc(CNC(=O)c3cc(C)n(C)n3)c2)o1)C1CCCCC1 | > 280 | 19 | 0.072 | > 280 |  |  |  |  |  |  | 51
23 | CNC(=O)[C@@H](NC(=O)c1ccc(-c2cccc(CNC(=O)c3cccc(C(F)(F)F)n3)c2)o1)C1CCOCC1 | 7100 | 130 |  | 1500 |  | 83 |  |  |  |  | 330
24 | CNC(=O)[C@H](NC(=O)c1ccc(-c2cccc(CNC(=O)c3ncccc3C)c2)o1)C1CCCCC1 | > 200 | 31 | 0.1 | > 200 |  |  |  |  |  |  | 85
25 | CNC(=O)[C@@H](NC(=O)c1ccc(-c2cccc(CNC(=O)c3cccc(C(F)(F)F)n3)c2)o1)C(C)(C)O | > 810 | 440 | 0.025 | > 770 |  | 62 |  |  |  |  | > 400
26 | CNC(=O)[C@H](NC(=O)c1ccc(-c2cccc(CNC(=O)c3cn4cccc(C)c4n3)c2)o1)C1CCCCC1 | > 45 | 29 | 0.11 | > 45 |  |  |  |  |  |  | > 45
27 | CNC(=O)[C@H](NC(=O)c1ccc(-c2cccc(CNC(=O)c3cccnc3)c2)o1)C1CCCCC1 | 48 | 7 | 0.042 | > 480 |  |  |  |  |  |  | 
28 | CNC(=O)[C@@H](NC(=O)c1ccc(-c2cccc(CNC(=O)c3cccc(C(F)(F)F)n3)c2)o1)C1CC1 |  |  |  |  |  | 60 |  |  |  |  | 

From ChEMBL document CHEMBL1221301, “SAR studies of non-zinc-chelating MMP-13 inhibitors: improving selectivity and metabolic stability” (Bioorg Med Chem Lett, 2010)
